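Five compound concentrations were applied to cells in 96-well plates for 48 hours; endpoints were derived by simple linear interpolation of the resulting dose-response curve. TGI: concentration producing complete growth inhibition.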
Key:
Assay in all cases: NCI tumour cell line growth inhibition, 48 h
A498 renal = test system: A498 renal
A549 NSCLC = test system: A549 NSCLC
ACHN renal = test system: ACHN renal
CCRF-CEM leukemia = test system: CCRF-CEM leukemia
COLO 205 colon = test system: COLO 205 colon
DU-145 prostate = test system: DU-145 prostate
EKVX NSCLC = test system: EKVX NSCLC
HCC-2998 colon = test system: HCC-2998 colon
HCT-116 colon = test system: HCT-116 colon
HCT-15 colon = test system: HCT-15 colon
HOP-62 NSCLC = test system: HOP-62 NSCLC
K-562 leukemia = test system: K-562 leukemia
KM12 colon = test system: KM12 colon
LOX IMVI melanoma = test system: LOX IMVI melanoma
M14 melanoma = test system: M14 melanoma
MDA-MB-231 breast = test system: MDA-MB-231 breast
MDA-N = test system: MDA-N
MOLT-4 leukemia = test system: MOLT-4 leukemia
NCI-H226 lung = test system: NCI-H226 lung
NCI-H23 lung = test system: NCI-H23 lung
NCI-H460 lung = test system: NCI-H460 lung
NCI-H522 lung = test system: NCI-H522 lung
NCI/ADR-RES ovarian = test system: NCI/ADR-RES ovarian
OVCAR-3 ovarian = test system: OVCAR-3 ovarian
OVCAR-4 ovarian = test system: OVCAR-4 ovarian
OVCAR-5 ovarian = test system: OVCAR-5 ovarian
OVCAR-8 ovarian = test system: OVCAR-8 ovarian
PC-3 prostate = test system: PC-3 prostate
RXF 393 renal = test system: RXF 393 renal
SF-295 CNS = test system: SF-295 CNS
SF-539 CNS = test system: SF-539 CNS
SK-MEL-2 melanoma = test system: SK-MEL-2 melanoma
SK-MEL-28 melanoma = test system: SK-MEL-28 melanoma
SK-MEL-5 melanoma = test system: SK-MEL-5 melanoma
SN12C renal = test system: SN12C renal
SNB-75 CNS = test system: SNB-75 CNS
T-47D breast = test system: T-47D breast
UACC-257 melanoma = test system: UACC-257 melanoma
UACC-62 melanoma = test system: UACC-62 melanoma
786-0 renal = test system: 786-0 renal
BT-549 breast = test system: BT-549 breast
CAKI-1 renal = test system: CAKI-1 renal
HT29 colon = test system: HT29 colon
IGROV1 ovarian = test system: IGROV1 ovarian
MALME-3M melanoma = test system: MALME-3M melanoma
MCF7 breast = test system: MCF7 breast
MDA-MB-435 = test system: MDA-MB-435
RPMI-8226 leukemia = test system: RPMI-8226 leukemia
SF-268 CNS = test system: SF-268 CNS
SK-OV-3 ovarian = test system: SK-OV-3 ovarian
SNB-19 CNS = test system: SNB-19 CNS
SR leukemia = test system: SR leukemia
SW-620 colon = test system: SW-620 colon
TK-10 renal = test system: TK-10 renal
U251 CNS = test system: U251 CNS
UO-31 renal = test system: UO-31 renal

`CCCCCCCCNC(=S)/N=C/c1c(O)c2ccccc2oc1=O` gave a TGI (A498 renal) of 32.2 µM, a TGI (A549 NSCLC) of 35.2 µM and a TGI (ACHN renal) of 29.5 µM. For the same molecule, the TGI (CCRF-CEM leukemia) was 30.9 µM, the TGI (COLO 205 colon) was 32.3 µM and the TGI (DU-145 prostate) was 33.6 µM. For the same molecule, the TGI (EKVX NSCLC) was 66.9 µM, the TGI (HCC-2998 colon) was 26.7 µM and the TGI (HCT-116 colon) was 31 µM. It also gave a TGI (HCT-15 colon) of 28.4 µM, a TGI (HOP-62 NSCLC) of 32.2 µM and a TGI (K-562 leukemia) of 40.1 µM. For the same molecule, the TGI (KM12 colon) was 29.1 µM, the TGI (LOX IMVI melanoma) was 26 µM and the TGI (M14 melanoma) was 34.6 µM. It also gave a TGI (MDA-MB-231 breast) of 32.4 µM, a TGI (MDA-N) of 34.3 µM and a TGI (MOLT-4 leukemia) of 33.7 µM. The TGI (NCI-H226 lung) was 51.7 µM, the TGI (NCI-H23 lung) was 39.7 µM and the TGI (NCI-H460 lung) was 30.3 µM. It also gave a TGI (NCI-H522 lung) of 22.4 µM, a TGI (NCI/ADR-RES ovarian) of 47.4 µM and a TGI (OVCAR-3 ovarian) of 29.1 µM. The TGI (OVCAR-4 ovarian) was 29.4 µM, the TGI (OVCAR-5 ovarian) was 28.1 µM and the TGI (OVCAR-8 ovarian) was 52.4 µM. For the same molecule, the TGI (PC-3 prostate) was 28.5 µM, the TGI (RXF 393 renal) was 34.8 µM and the TGI (SF-295 CNS) was 34 µM. The TGI (SF-539 CNS) was 36.6 µM, the TGI (SK-MEL-2 melanoma) was 48 µM and the TGI (SK-MEL-28 melanoma) was 31.1 µM. It also gave a TGI (SK-MEL-5 melanoma) of 30.4 µM, a TGI (SN12C renal) of 38.7 µM and a TGI (SNB-75 CNS) of 34.2 µM. For the same molecule, the TGI (T-47D breast) was > 100 µM, the TGI (UACC-257 melanoma) was 40.9 µM and the TGI (UACC-62 melanoma) was 28.6 µM.
For `CSC(=S)OC1C(CO[Si](C)(C)C(C)(C)C)OC2OC(C)(C)OC21` (centres undefined), the TGI (786-0 renal) was 42 µM, the TGI (A498 renal) was 43.4 µM and the TGI (A549 NSCLC) was 78.6 µM. For the same molecule, the TGI (ACHN renal) was 31.3 µM, the TGI (BT-549 breast) was 67 µM and the TGI (CAKI-1 renal) was > 100 µM. The TGI (CCRF-CEM leukemia) was 34 µM, the TGI (COLO 205 colon) was 36.1 µM and the TGI (DU-145 prostate) was > 100 µM. For the same molecule, the TGI (EKVX NSCLC) was 60.1 µM, the TGI (HCC-2998 colon) was 49 µM and the TGI (HCT-116 colon) was 36.6 µM. For the same molecule, the TGI (HCT-15 colon) was 35.3 µM, the TGI (HOP-62 NSCLC) was 34.4 µM and the TGI (HT29 colon) was 24.7 µM. For the same molecule, the TGI (IGROV1 ovarian) was 53.6 µM, the TGI (K-562 leukemia) was 31 µM and the TGI (KM12 colon) was 30.4 µM. For the same molecule, the TGI (LOX IMVI melanoma) was 32 µM, the TGI (M14 melanoma) was > 100 µM and the TGI (MALME-3M melanoma) was 32.4 µM. The TGI (MCF7 breast) was 29.8 µM, the TGI (MDA-MB-231 breast) was 33.9 µM and the TGI (MDA-MB-435) was > 100 µM. For the same molecule, the TGI (MDA-N) was > 100 µM, the TGI (MOLT-4 leukemia) was 30.5 µM and the TGI (NCI-H226 lung) was 29.7 µM. For the same molecule, the TGI (NCI-H23 lung) was 44.3 µM, the TGI (NCI-H460 lung) was 32.8 µM and the TGI (NCI-H522 lung) was 31.3 µM. For the same molecule, the TGI (NCI/ADR-RES ovarian) was 36.2 µM, the TGI (OVCAR-3 ovarian) was 31.3 µM and the TGI (OVCAR-4 ovarian) was > 100 µM. It also gave a TGI (OVCAR-5 ovarian) of 37.6 µM, a TGI (OVCAR-8 ovarian) of 95.8 µM and a TGI (PC-3 prostate) of 38.4 µM. The TGI (RPMI-8226 leukemia) was 36.5 µM, the TGI (RXF 393 renal) was 37.5 µM and the TGI (SF-268 CNS) was 45.9 µM. For the same molecule, the TGI (SF-295 CNS) was 32.2 µM, the TGI (SF-539 CNS) was 43.5 µM and the TGI (SK-MEL-2 melanoma) was 28.5 µM. The TGI (SK-MEL-28 melanoma) was > 100 µM, the TGI (SK-MEL-5 melanoma) was 30.4 µM and the TGI (SK-OV-3 ovarian) was 41.5 µM. The TGI (SN12C renal) was 37.1 µM, the TGI (SNB-19 CNS) was 47 µM and the TGI (SNB-75 CNS) was > 100 µM. For the same molecule, the TGI (SR leukemia) was 30.4 µM, the TGI (SW-620 colon) was 31.9 µM and the TGI (TK-10 renal) was 49 µM. For the same molecule, the TGI (U251 CNS) was 31.8 µM, the TGI (UACC-257 melanoma) was 34.8 µM and the TGI (UACC-62 melanoma) was 36.1 µM. It also gave a TGI (UO-31 renal) of 32 µM.

Reference: PubChem BioAssay (NCI)
